Experiments:
[1] = biological target: [35S]-TBPS binding, rat brain cortical membranes; test: Steroid inhibition of [35S]-TBPS binding; conditions: 3 nM [35S]-TBPS, in the presence of 5 mM GABA
Method in brief: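 Rat cortical P2 membranes incubated 90 min at room temperature with 3 nM [35S]-TBPS, […] and test compound (0.5% DMSO final) in NaCl/Na–K phosphate pH 7.4; nonspecific binding with […]. Filter-bound radioactivity counted; IC50 and Imax from nonlinear fits, mean ± SEM.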

[2] = biological target: human GABAA receptors composed of the α1β2γ2 subunits (Homo sapiens (Human), UniProt P14867+P18507+P47870); test: α1β2γ2 SyncroPatch automated patch clamp assay; type: cell-based; conditions: for EC50: HEK cells, potentiation of submaximal GABA current, clamped at −120 mV; for α1β2γ2 EMAX: peak current after GABA+compound divided by peak current after GABA alone
Method in brief: (§1)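 Whole-cell recordings in HEK cells stably expressing each receptor, held at −120 mV, pH 7.4 extracellular/pH 7.2 KF-based intracellular solution. Submaximal GABA (3-5 μM or 10 μM) applied, then GABA plus compound at 0.029-30 μM (six concentrations, n=8-12 cells). Effect = peak current ratio GABA+compound/GABA alone; EC50 and Emax from concentration means.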

[3] = biological target: human GABAA receptors composed of the α4β3δ subunits (Homo sapiens (Human), UniProt O14764+P28472+P48169); test: α4β3δ SyncroPatch automated patch clamp assay; type: cell-based; conditions: for EC50: HEK cells, potentiation of submaximal GABA current, clamped at −120 mV; for α4β3δ EMAX: peak current after GABA+compound divided by peak current after GABA alone
Method in brief: as §1

human GABAA receptors composed of the α4β3δ subunits, sequence (P48169 36-554 limits assumed): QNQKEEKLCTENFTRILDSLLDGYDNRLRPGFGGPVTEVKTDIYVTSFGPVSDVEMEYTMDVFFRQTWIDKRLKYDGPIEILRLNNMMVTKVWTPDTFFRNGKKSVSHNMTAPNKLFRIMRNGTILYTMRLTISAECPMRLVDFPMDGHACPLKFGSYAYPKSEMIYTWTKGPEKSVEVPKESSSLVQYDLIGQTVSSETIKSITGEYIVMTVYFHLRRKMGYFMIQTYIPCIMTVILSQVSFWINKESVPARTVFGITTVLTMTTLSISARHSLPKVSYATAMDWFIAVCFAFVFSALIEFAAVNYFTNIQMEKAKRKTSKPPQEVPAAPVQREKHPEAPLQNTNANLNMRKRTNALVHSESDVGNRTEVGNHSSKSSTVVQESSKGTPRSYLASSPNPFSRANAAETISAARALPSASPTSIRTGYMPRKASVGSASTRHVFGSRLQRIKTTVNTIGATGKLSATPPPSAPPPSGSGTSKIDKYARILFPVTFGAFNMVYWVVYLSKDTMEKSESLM
human GABAA receptors composed of the α4β3δ subunits, sequence (P28472 26-473 limits assumed): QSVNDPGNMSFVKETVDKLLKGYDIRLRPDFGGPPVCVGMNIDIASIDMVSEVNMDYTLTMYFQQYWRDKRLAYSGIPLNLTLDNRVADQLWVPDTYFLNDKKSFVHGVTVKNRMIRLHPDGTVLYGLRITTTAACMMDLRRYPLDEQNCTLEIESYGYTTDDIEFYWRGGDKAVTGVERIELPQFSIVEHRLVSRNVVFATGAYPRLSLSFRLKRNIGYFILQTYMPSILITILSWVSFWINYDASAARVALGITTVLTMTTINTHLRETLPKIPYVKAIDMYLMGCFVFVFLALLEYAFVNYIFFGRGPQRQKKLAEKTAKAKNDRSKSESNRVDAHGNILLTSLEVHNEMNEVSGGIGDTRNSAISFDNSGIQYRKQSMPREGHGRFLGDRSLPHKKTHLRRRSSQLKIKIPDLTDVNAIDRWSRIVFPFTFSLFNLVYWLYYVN
human GABAA receptors composed of the α4β3δ subunits, sequence (O14764 17-452 limits assumed): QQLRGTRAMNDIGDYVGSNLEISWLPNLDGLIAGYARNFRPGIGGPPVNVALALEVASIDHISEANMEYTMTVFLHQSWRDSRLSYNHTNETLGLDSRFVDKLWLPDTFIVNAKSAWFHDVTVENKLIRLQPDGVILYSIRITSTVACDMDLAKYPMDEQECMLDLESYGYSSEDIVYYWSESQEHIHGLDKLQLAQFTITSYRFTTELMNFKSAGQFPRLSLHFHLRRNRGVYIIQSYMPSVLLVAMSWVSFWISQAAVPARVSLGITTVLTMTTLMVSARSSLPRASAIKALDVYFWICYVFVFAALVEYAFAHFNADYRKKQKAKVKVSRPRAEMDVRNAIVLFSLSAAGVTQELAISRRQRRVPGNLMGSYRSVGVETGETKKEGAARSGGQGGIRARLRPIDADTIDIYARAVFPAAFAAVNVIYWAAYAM
human GABAA receptors composed of the α1β2γ2 subunits, sequence (P14867 28-456 limits assumed): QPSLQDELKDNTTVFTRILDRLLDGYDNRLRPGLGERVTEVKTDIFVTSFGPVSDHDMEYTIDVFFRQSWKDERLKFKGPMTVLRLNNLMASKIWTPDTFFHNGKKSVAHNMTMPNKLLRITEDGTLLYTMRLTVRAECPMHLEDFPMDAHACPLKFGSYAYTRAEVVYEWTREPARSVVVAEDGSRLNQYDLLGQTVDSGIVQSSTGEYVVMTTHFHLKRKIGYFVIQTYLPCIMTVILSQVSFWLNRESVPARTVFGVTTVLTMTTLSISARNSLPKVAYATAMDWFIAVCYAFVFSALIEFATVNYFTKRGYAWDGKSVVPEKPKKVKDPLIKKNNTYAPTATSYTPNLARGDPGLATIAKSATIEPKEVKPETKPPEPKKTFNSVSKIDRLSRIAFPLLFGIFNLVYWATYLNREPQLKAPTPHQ
human GABAA receptors composed of the α1β2γ2 subunits, sequence (P47870 25-512 limits assumed): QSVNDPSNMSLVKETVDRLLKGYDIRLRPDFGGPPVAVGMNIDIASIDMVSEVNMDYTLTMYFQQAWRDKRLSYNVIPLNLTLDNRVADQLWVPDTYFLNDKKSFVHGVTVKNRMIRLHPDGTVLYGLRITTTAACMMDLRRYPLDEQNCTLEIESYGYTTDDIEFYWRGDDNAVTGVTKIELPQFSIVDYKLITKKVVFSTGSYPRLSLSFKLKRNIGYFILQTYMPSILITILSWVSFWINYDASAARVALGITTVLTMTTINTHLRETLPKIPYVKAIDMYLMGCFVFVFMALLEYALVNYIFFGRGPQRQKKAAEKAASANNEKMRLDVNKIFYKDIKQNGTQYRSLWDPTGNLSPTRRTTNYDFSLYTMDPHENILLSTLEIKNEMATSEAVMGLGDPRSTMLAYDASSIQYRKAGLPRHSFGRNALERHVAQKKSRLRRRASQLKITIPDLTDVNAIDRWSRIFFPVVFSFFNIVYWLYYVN
human GABAA receptors composed of the α1β2γ2 subunits, sequence (P18507 40-475 limits assumed): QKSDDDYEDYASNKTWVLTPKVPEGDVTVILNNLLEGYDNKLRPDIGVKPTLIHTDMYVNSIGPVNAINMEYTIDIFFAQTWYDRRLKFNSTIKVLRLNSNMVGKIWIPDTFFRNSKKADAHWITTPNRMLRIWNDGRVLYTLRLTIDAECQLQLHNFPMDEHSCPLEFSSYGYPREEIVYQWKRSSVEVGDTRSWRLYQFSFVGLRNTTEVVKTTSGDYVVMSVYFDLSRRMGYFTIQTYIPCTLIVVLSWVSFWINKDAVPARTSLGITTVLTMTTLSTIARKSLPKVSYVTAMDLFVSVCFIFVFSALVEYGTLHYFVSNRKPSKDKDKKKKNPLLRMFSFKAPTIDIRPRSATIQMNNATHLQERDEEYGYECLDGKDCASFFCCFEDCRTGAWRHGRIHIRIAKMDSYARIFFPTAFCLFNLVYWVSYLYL

SMILES | IC50 [1] [nM] | EC50 [2] [nM] | α1β2γ2 EMAX [2] | EC50 [3] [nM] | α4β3δ EMAX [3]
COC[C@@]1(O)CC[C@H]2[C@H](CC[C@@H]3[C@@H]2CC[C@]2(C)[C@@H]([C@H](C)Cc4ccc(C#N)nc4)CC[C@@H]32)C1 [Example 405, 5-((R)-2-((3R,5R,8R,9R,10S,13R,14S,17R)-3-hydroxy-3-(methoxymethyl)-13-methylhexadecahydro-1H-cyclopenta[a]phenanthren-17-yl)propyl)picolinonitrile] | < 100 | ≥ 1000 | C (C indicates an Emax response ≥10) | < 200 | B (B indicates an Emax response 30 to <45)
C[C@H](Cc1cncc(C#N)c1)[C@H]1CC[C@H]2[C@@H]3CC[C@@H]4C[C@](C)(O)CC[C@@H]4[C@H]3CC[C@]12C [Example 406, 5-((R)-2-((3R,5R,8R,9R,10S,13R,14S,17R)-3-hydroxy-3,13-dimethylhexadecahydro-1H-cyclopenta[a]phenanthren-17-yl)propyl)nicotinonitrile] | < 100 | < 200 | A (A indicates an Emax response <8) | < 200 | B (B indicates an Emax response 30 to <45)

From patent US20230322846A9, “NEUROACTIVE STEROIDS AND THEIR METHODS OF USE” (SAGE THERAPEUTICS, INC., priority 2018, published 2023)
